Results: patent US20260116921A1, “PEPTIDE INHIBITORS OF INTERLEUKIN-23 RECEPTOR AND THEIR USE TO TREAT INFLAMMATORY DISEASES” (priority 2018, published 2026)
Bridge positions count the residues as written; N and C are the ends. Square brackets hold non-standard residues; d marks the D form. Peptide text beside a SMILES is read from it. Trp(7-Me) = Cc1cccc2c(C[C@H](N)C(=O)O)c[nH]c12; Trp(1-Me) = Cn1cc(C[C@H](N)C(=O)O)c2ccccc21; 2Nal = N[C@@H](Cc1ccc2ccccc2c1)C(=O)O; AEF = NCCOc1ccc(C[C@H](N)C(=O)O)cc1; Cit = NC(=O)NCCC[C@H](N)C(=O)O; Pen = CC(C)(S)[C@H](N)C(=O)O; αMeK = C[C@](N)(CCCCN)C(=O)O; βAla = NCCC(=O)O

What was measured:
IL-23R = target: T1, IL-23R (Homo sapiens, UniProt Q5VWK5); test: DB cells IL23R pSTAT3 cell assay (pStat3 HTRF); type: cell-based; settings: Table E3; DB cells, IL-23 0.5 nM, 30 minutes at 37° C.; read-out: pStat3 HTRF (IC50)
T1 sequence (Q5VWK5 24-629): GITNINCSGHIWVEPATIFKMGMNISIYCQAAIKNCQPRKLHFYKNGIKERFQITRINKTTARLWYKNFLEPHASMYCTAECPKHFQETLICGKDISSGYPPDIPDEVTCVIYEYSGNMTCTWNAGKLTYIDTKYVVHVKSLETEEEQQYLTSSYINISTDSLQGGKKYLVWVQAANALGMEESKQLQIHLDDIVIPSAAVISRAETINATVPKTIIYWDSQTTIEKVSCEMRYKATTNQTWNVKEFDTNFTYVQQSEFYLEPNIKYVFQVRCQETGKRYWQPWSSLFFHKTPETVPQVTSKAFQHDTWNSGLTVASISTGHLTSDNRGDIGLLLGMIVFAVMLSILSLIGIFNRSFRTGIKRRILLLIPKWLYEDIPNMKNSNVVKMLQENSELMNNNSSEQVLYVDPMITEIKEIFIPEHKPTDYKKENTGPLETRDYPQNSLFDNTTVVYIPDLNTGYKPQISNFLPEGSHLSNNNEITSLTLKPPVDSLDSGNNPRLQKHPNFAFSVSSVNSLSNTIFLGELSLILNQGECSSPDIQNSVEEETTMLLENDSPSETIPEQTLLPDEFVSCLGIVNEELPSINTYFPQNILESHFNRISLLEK
Procedure, shortened: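 HTRF readout of lysate pSTAT3 (Tyr705) after two-plate processing. Peptide dilution series co-incubated with IL-23 (0.5 nM final) on 5×10E5 IL-23R-expressing DB cells per well, 30 min, 37 °C.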

in vitro [1] = type: in vitro ADME; set-up: half-life: dose or concentration left out as unconfirmed; settings: simulated intestinal fluid (SIF) with pancreatin, pH 6.8, 37° C., § matrix is 100 fold dilution of standard SIF concentration, read-out: SIF t½ (converted)
in vitro [2] = settings: human, 20% fecal homogenate (supernatant), anaerobic, pH 6.8
in vitro [3] = settings: cynomolgus monkey, 20% fecal homogenate (supernatant), anaerobic, pH 6.8
in vitro [4] = settings: both, SD, rat, plasma (EDTA)

CC(=O)NCCCC[C@@H]1NC(=O)[C@H](Cc2c[nH]c3c(C)cccc23)NC(=O)[C@H]([C@@H](C)O)NC(=O)[C@H](CC(N)=O)NC(=O)[C@@H](NC(C)=O)C(C)(C)SSC(C)(C)[C@@H](C(=O)N[C@@H](Cc2ccc3ccccc3c2)C(=O)N[C@@H](Cc2ccc3ccccc3c2)C(=O)N[C@@](C)(CCCCN)C(=O)N[C@@H](CCCCNC(C)=O)C(=O)N[C@@H](CC(N)=O)C(=O)N[C@H](CC(C)C)C(N)=O)NC1=O [compound 289] (Ac-[Pen]NT[Trp(7-Me)]K(Ac)[Pen][2Nal][2Nal][αMeK]K(Ac)N[dL]-NH2; disulfide 1-6)
IC50 (IL-23R): 1 to 10 nM
half-life (in vitro [1]): 12 h
half-life at 20 μM (in vitro [2]): > 24 h
half-life at 20 μM (in vitro [3]): > 24 h
half-life at 20 μM (in vitro [4]): > 24 h

CC(=O)NCCCC[C@H](NC(=O)[C@](C)(CCCCN)NC(=O)[C@H](Cc1ccc2ccccc2c1)NC(=O)[C@H](Cc1ccc(OCCN)cc1)NC(=O)[C@H]1NC(=O)[C@H](CCCNC(N)=O)NC(=O)[C@H](Cc2cn(C)c3ccccc23)NC(=O)[C@H]([C@@H](C)O)NC(=O)[C@H](CC(N)=O)NC(=O)[C@@H](NC(C)=O)C(C)(C)SSC1(C)C)C(=O)NCCC(=O)NCCC(N)=O [compound 280] (Ac-[Pen]NT[Trp(1-Me)][Cit][Pen][AEF][2Nal][αMeK]K(Ac)[βAla][βAla]-NH2; disulfide 1-6)
IC50 (IL-23R): 10 to 100 nM
half-life (in vitro [1]): 8 h
half-life at 20 μM (in vitro [2]): > 24 h
half-life at 20 μM (in vitro [3]): > 24 h
half-life at 20 μM (in vitro [4]): > 24 h

CC(=O)NCCCC[C@H](NC(=O)[C@](C)(CCCCN)NC(=O)[C@H](Cc1ccc2ccccc2c1)NC(=O)[C@H](Cc1ccc(OCCN)cc1)NC(=O)[C@H]1NC(=O)[C@H](CCCNC(N)=O)NC(=O)[C@H](Cc2c[nH]c3c(C)cccc23)NC(=O)[C@H]([C@@H](C)O)NC(=O)[C@H](CC(N)=O)NC(=O)[C@@H](NC(C)=O)C(C)(C)SSC1(C)C)C(=O)N[C@@H](CC(N)=O)C(=O)N[C@H](Cc1ccc(O)cc1)C(N)=O [compound 259] (Ac-[Pen]NT[Trp(7-Me)][Cit][Pen][AEF][2Nal][αMeK]K(Ac)N[dY]-NH2; disulfide 1-6)
IC50 (IL-23R): < 1 nM
half-life (in vitro [1]): 12 h
half-life at 20 μM (in vitro [2]): > 24 h
half-life at 20 μM (in vitro [3]): 16 h
half-life at 20 μM (in vitro [4]): > 24 h

COc1cccc2c(C[C@@H]3NC(=O)[C@H]([C@@H](C)O)NC(=O)[C@H](CC(N)=O)NC(=O)[C@@H](NC(C)=O)C(C)(C)SSC(C)(C)[C@@H](C(=O)N[C@@H](Cc4ccc(OCCN)cc4)C(=O)N[C@@H](Cc4ccc5ccccc5c4)C(=O)N[C@@](C)(CCCCN)C(=O)N[C@@H](CCCCNC(C)=O)C(=O)N[C@@H](CC(N)=O)C(=O)N[C@H](CC(C)C)C(N)=O)NC(=O)[C@H](CCCCNC(C)=O)NC3=O)c[nH]c12 [compound 288]
IC50 (IL-23R): 1 to 10 nM
half-life (in vitro [1]): 12 h
half-life at 20 μM (in vitro [2]): > 24 h
half-life at 20 μM (in vitro [3]): > 24 h
half-life at 20 μM (in vitro [4]): > 24 h

CC(=O)NCCCC[C@H](NC(=O)C1(NC(=O)[C@H](Cc2ccc3ccccc3c2)NC(=O)[C@H](Cc2ccc(OCCN)cc2)NC(=O)[C@H]2NC(=O)[C@H](CCC(N)=O)NC(=O)[C@H](Cc3c[nH]c4c(C)cccc34)NC(=O)[C@H]([C@@H](C)O)NC(=O)[C@H](CC(N)=O)NC(=O)[C@@H](NC(C)=O)C(C)(C)SSC2(C)C)CCCCC1)C(=O)N[C@@H](CC(N)=O)C(=O)NCCC(N)=O [compound 274]
IC50 (IL-23R): < 1 nM
half-life (in vitro [1]): 5 h
half-life at 20 μM (in vitro [2]): > 24 h
half-life at 20 μM (in vitro [3]): 4 h
half-life at 20 μM (in vitro [4]): 5 h

CC(=O)NCCCC[C@@H]1NC(=O)[C@H](Cc2c[nH]c3c(C)cccc23)NC(=O)[C@H]([C@@H](C)O)NC(=O)[C@H](CC(N)=O)NC(=O)[C@@H](NC(C)=O)C(C)(C)SSC(C)(C)[C@@H](C(=O)N[C@@H](Cc2ccc(OCCN)cc2)C(=O)N[C@@H](Cc2ccc3ccccc3c2)C(=O)N[C@@](C)(CCCCN)C(=O)N[C@@H](CCCCNC(C)=O)C(=O)N[C@@H](CC(N)=O)C(=O)N[C@@H](CCCNC(N)=O)C(N)=O)NC1=O [compound 249]
IC50 (IL-23R): < 1 nM
half-life (in vitro [1]): 7 h
half-life at 20 μM (in vitro [2]): > 24 h
half-life at 20 μM (in vitro [3]): 5 h
half-life at 20 μM (in vitro [4]): > 24 h
